Measurements: patent US20040082602A1, “Substituted thiophene carboxamide compounds for the treatment of inflammation” (priority 2002, published 2004)
Counter-ions that a name gives are not always drawn.

Biological target: T1, IKK-2 (Homo sapiens, UniProt O14920)
T1 construct: made in house; host or cells: baculovirus (pFastBac) in insect cells; SF9
T1 sequence (O14920 1-756): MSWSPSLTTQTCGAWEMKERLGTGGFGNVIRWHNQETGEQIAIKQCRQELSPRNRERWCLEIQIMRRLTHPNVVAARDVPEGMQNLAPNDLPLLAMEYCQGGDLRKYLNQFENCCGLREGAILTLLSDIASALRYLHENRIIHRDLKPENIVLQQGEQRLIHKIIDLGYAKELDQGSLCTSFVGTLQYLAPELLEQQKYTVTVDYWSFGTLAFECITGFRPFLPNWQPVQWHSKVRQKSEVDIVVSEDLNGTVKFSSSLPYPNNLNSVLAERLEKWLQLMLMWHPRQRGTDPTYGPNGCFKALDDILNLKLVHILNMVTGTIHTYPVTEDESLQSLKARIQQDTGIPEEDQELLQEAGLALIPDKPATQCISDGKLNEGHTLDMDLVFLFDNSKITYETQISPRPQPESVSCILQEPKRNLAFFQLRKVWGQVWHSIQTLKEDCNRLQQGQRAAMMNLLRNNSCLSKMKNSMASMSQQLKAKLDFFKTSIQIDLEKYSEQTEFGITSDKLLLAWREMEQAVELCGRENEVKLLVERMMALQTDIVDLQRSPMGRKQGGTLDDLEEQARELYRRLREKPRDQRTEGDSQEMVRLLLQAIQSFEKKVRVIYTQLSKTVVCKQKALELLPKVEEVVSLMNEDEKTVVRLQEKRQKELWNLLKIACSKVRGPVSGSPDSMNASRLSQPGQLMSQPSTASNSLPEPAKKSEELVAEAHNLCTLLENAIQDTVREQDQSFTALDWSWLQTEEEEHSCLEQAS
Assay: IKK-2 Resin assay (IKKβ Resin Enzyme Assay)
Type: biochemical
Conditions: rhIKK2 homodimer, 5 μM biotinylated IκBα peptide, 1 μM ATP, 25° C., 30 min
Excerpt: cDNAs of human IKK1 and IKK2 were amplified by reverse transcriptase-polymerase chain reaction from human placental RNA (Clonetech). hIKK1 was subcloned into pFastBac HTa (Life Technologies) and expressed as N-terminal His6-tagged fusion protein. The hIKK2 cDNA was amplified using a reverse oligonucleotide primer which incorporated the peptide sequence for a FLAG-epitope tag at the C-terminus of the IKK2 coding region (DYKDDDDKD). The hIKK2:FLAG cDNA was subcloned into the baculovirus vector pFastBac. The rhIKK2 ([…]) mutant was constructed in the same vector used for wild type rhIKK2 using a QuikChange™ mutagenesis kit (Stratagene). Viral stocks of each construct were used to infect insect cells grown in 40L suspension culture. […] Cell lysates were stored at −80° C. until purification of the recombinant proteins was undertaken as described below.
A 10-liter culture of baculovirus-expressing IKK2 tagged with FLAG peptide was centrifuged and the cell pellet (MOI=0.1 and 1=72 hrs) was re-suspended in buffer A. These cells were microfluidized, and centrifuged at 100,000×g for 45 min. Supernatant was passed over a G-25 column equilibrated with Buffer A. Protein peak was collected and incubated with anti-FLAG affinity resin on a rotator overnight in buffer B. The resin was washed in batch with 10-15 bed volumes of buffer C. Washed resin was poured into a column and rhIKK2 homodimer was eluted using 5 bed volumes of buffer B containing FLAG peptide. 5 mM DTT, 0.1% NP-40 and BSA (concentrated to 0.1% in final amount) was added to the eluted enzyme before concentrating in using an Amicon membrane with a molecular weight cut-off of 30 kDa. Enzyme was aliquoted and stored at −80° C.
IKKβ kinase activity was measured using a biotinylated IκBα peptide (Gly-LeuLys-Lys-Glu-Arg-Leu-Leu-Asp-Asp-Arg-His-Asp-Ser32-Gly-Leu-Asp-Ser36-Met Lys-Asp-Glu-Glu) (American Peptide Co.). 20 ul of the standard reaction mixture contained 5 μM biotinylated IκBα peptide, 0.1 μCi/reaction [γ^33P] ATP (Amersham) (about 1×10^5 cpm), 1 μM ATP (Sigma), 1 mM DTT (Sigma), 2 mM MgCl2 (Sigma), 2 mM MnCl2 (Sigma), 10 mM NaF (Sigma), 25 mM Hepes (Sigma) buffer, pH 7.6 and 20 μl enzyme solution and 10 ul inhibitor in a final volume of […]. After incubation at 25° C. for 30 min, 150 μl resin (Dowex anion-exchange resin AGIX8 200-400 mesh) in 900 mM formate, pH 3.0 was added to each well to stop the reaction. Resin was allowed to settle for one hour and 50 ul of supernatant was removed to a Micolite-2 flat bottom plate (Dynex). 150 μl of scintillation fluid (Microscint 40) (Packard) was added to each well. Incorporation of [γ-^33P] ATP was measured using a Top-Count NXT (Packard).

Row | SMILES | IC50 [µM]
1 | NC(=O)c1sc2c(c1N)CCc1ccccc1-2 [Example 1, 3-amino-4,5-dihydronaphtho[1,2-b]thiophene-2-carboxamide] | 10 to 20
2 | NCCCNc1c(C(N)=O)sc2c1CCc1ccccc1-2 [Example 4, 3-[(3-aminopropyl)amino]-4,5-dihydronaphtho[1,2-b]thiophene-2-carboxamide hydrochloride] | 10 to 20
3 | NC(=O)Nc1c(C(N)=O)sc2c1CCc1ccccc1-2 [Example 5, 3-[(aminocarbonyl)amino]4,5-dihydronaphtho[1,2-b]thiophene-2-carboxamide] | 10 to 20
4 | N#Cc1c(N)sc2c1CCc1ccccc1-2 [Example 6, 2-amino-4,5-dihydronaphtho[1,2-b]thiophene-3-carbonitrile] | 10 to 20
5 | CC(=O)Nc1sc2c(c1C(N)=O)CCc1ccccc1-2 [Example 7, 2-(acetylamino)-4,5-dihydronaphtho[1,2-b]thiophene-3-carboxamide] | 10 to 20

More lines, now with the values ahead:

Row | IC50 [µM] | SMILES
6 | 1 to 10 | COc1ccc2c(c1)-c1sc(C(N)=O)c(N)c1CC2 [Example 2, 3-amino-8-methoxy-4,5-dihydronaphtho[1,2-b]thiophene-2-carboxamide]
7 | 1 to 10 | NCCNc1c(C(N)=O)sc2c1CCc1ccccc1-2 [Example 3, 3-[(2-aminoethyl)amino]-4,5-dihydronaphtho[1,2-b]thiophene-2-carboxamide hydrobromide]
8 | ≤ 1 | NC(=O)Nc1sc2c(c1C(N)=O)CCc1ccccc1-2 [Example 8, 2-[(aminocarbonyl)amino]-4,5-dihydronaphtho[1,2-b]thiophene-3-carboxamide]
